# Measured values published in patent US20210037824A1, “HERBICIDAL MIXTURES” (BASF SE, priority 2018, published 2021).
# Columns and labels:
# Conditions in all cases: scale 0 to 100
# [1] = system: GALAP; assay: greenhouse pre-emergence herbicidal activity, GALAP; type: in vivo, Galium aparine
# From the text: (§1) The seeds of the test plants were sown separately for each species. For the pre-emergence treatment, the active compounds, suspended or emulsified in water, were applied 1 day after sowing by means of finely distributing nozzles. The containers were irrigated gently to promote germination and growth and subsequently covered with transparent plastic hoods until the plants had rooted. This cover caused uniform germination of the test plants unless this was adversely affected by the active compounds. Depending on the species, the plants were kept at 10-25° C. and 20-35° C., respectively. The test period extended over 2 to 4 weeks. During this time, the plants were tended and their response to the individual treatments was evaluated. Evaluation was carried out using a scale from 0 to 100. 100 means no emergence of the plants, or complete destruction of at least the above-ground parts, and 0 means no damage or normal course of growth. A good herbicidal activity is given at values of at least 70, and very good herbicidal activity is given at values of at least 85. […] 22ff., the value E, which is expected if the activity of the individual active compounds is only additive, was calculated. […] If the value found experimentally is higher than the value E calculated according to Colby, a synergistic effect is present.
# [2] = system: LOLMU; assay: greenhouse pre-emergence herbicidal activity, LOLMU; type: in vivo, Lolium multiflorum
# From the text: as §1
# [3] = system: IPOHE; assay: greenhouse post-emergence herbicidal activity, IPOHE; type: in vivo, Ipomoea hederacea
# Protocol: (§2) The seeds of the test plants were sown separately for each species. For the post-emergence treatment, the test plants were grown to a plant height of from 3 to 15 cm, depending on the plant habit, and only then treated with the active compounds which had been suspended or emulsified in water. To this end, the test plants were either sown directly, and grown in the same containers, or they were first grown separately as seedlings and transplanted into the test containers one week prior to treatment. Depending on the species, the plants were kept at 10-25° C. and 20-35° C., respectively. The test period extended over 2 to 4 weeks. During this time, the plants were tended and their response to the individual treatments was evaluated. Evaluation was carried out using a scale from 0 to 100. 100 means no emergence of the plants, or complete destruction of at least the above-ground parts, and 0 means no damage or normal course of growth. A good herbicidal activity is given at values of at least 70, and very good herbicidal activity is given at values of at least 85. […] 22ff., the value E, which is expected if the activity of the individual active compounds is only additive, was calculated. […] If the value found experimentally is higher than the value E calculated according to Colby, a synergistic effect is present.
# [4] = system: STEME; assay: greenhouse pre-emergence herbicidal activity, STEME; type: in vivo, Stellaria media
# From the text: (§3) The seeds of the test plants were sown separately for each species. For the pre-emergence treatment, the active compounds, suspended or emulsified in water, were applied 1 day after sowing by means of finely distributing nozzles. The containers were irrigated gently to promote germination and growth and subsequently covered with transparent plastic hoods until the plants had rooted. This cover caused uniform germination of the test plants unless this was adversely affected by the active compounds. Depending on the species, the plants were kept at 10-25° C. and 20-35° C., respectively. The test period extended over 2 to 4 weeks. During this time, the plants were tended and their response to the individual treatments was evaluated. Evaluation was carried out using a scale from 0 to 100. 100 means no emergence of the plants, or complete destruction of at least the above-ground parts, and 0 means no damage or normal course of growth. A good herbicidal activity is given at values of at least 70, and very good herbicidal activity is given at values of at least 85. Trifludimoxazin was formulated as a 500 g/I suspension concentrate, the compound of formula (I) was formulated as a 50 g/I emulsifiable concentrate and, with addition of the amount of solvent system, introduced into the spray liquor used for applying the active compound. In the examples, the solvent used was water. In the examples below, using the method of S. R. Colby (1967) “Calculating synergistic and antagonistic responses of herbicide combinations”, Weeds 15, p. 22ff., the value E, which is expected if the activity of the individual active compounds is only additive, was calculated. E=X+Y−(X·Y/100) • where • X=percent activity using active compound A at an application rate a; • Y=percent activity using active compound B at an application rate b; • E=expected activity (in %) by A+B at application rates a+b. If the value found experimentally is higher than the value E calculated according to Colby, a synergistic effect is present.
# [5] = system: STEME; assay: greenhouse post-emergence herbicidal activity, STEME; type: in vivo, Stellaria media
# Protocol: as §2
# [6] = system: GERDI; assay: greenhouse pre-emergence herbicidal activity, GERDI; type: in vivo, Geranium dissecium
# From the text: as §3
# [7] = system: LAMPU; assay: greenhouse pre-emergence herbicidal activity, LAMPU; type: in vivo, Lamium purpureum
# From the text: as §1
# [8] = system: AVEFA; assay: greenhouse pre-emergence herbicidal activity, AVEFA; type: in vivo, Avena fatua
# From the text: as §1
# [9] = system: MATIN; assay: greenhouse pre-emergence herbicidal activity, MATIN; type: in vivo, Matricaria inodora
# From the text: as §1
# [10] = system: ALOMY; assay: greenhouse pre-emergence herbicidal activity, ALOMY; type: in vivo, Alopercurus myosuroides
# From the text: as §1
# [11] = system: POLCO; assay: greenhouse pre-emergence herbicidal activity, POLCO; type: in vivo, Polygonum convolvulus
# From the text: as §3
# [12] = Example 6, compound (I) 15.63 g/ha a.s. alone
# [13] = Example 7, compound (I) 15.63 g/ha a.s. alone
# [14] = Example 8, compound (I) 7.81 g/ha a.s. alone
# [15] = Example 1, compound (I) 15.625 g/ha a.s. alone
# [16] = Example 3, compound (I) 31.25 g/ha a.s. alone
# [17] = Example 2, compound (I) 62.5 g/ha a.s. alone
# [18] = Example 6, trifludimoxazin 0.5 g/ha a.s. alone
# [19] = Example 7, trifludimoxazin 0.25 g/ha a.s. alone
# [20] = Example 8, trifludimoxazin 0.25 g/ha a.s. alone
# [21] = Example 1, trifludimoxazin 9 g/ha a.s. alone
# [22] = Example 3, trifludimoxazin 4.5 g/ha a.s. alone
# [23] = Example 2, trifludimoxazin 4.5 g/ha a.s. alone
structure (smiles),measurement,setting,value
"CC1(C)CON(Cc2ccc(Cl)cc2Cl)C1=O [(I), 2-(2,4-dichlorophenyl)methyl-4,4-dimethyl-3-isoxazolidone]",herbicidal activity against GALAP found,"[1]; Example 9, compound (I) 15.63 g/ha a.s. alone",73%
same,herbicidal activity against LOLMU found,"[2]; Example 4, compound (I) 125 g/ha a.s. alone",65%
same,herbicidal activity against IPOHE found,[3]; [12],53%
same,herbicidal activity against STEME found,[4]; [13],83%
same,herbicidal activity against STEME found,[4]; [14],85%
same,herbicidal activity against STEME found,[5]; [12],83%
same,herbicidal activity against GERDI found,[6]; [15],20%
same,herbicidal activity against GERDI found,[6]; [16],35%
same,herbicidal activity against GERDI found,"[6]; Example 5, compound (I) 15.625 g/ha a.s. alone",20%
same,herbicidal activity against LAMPU found,[7]; [16],0%
same,herbicidal activity against AVEFA found,[8]; [17],0%
same,herbicidal activity against MATIN found,[9]; [17],50%
same,herbicidal activity against ALOMY found,[10]; [15],0%
same,herbicidal activity against POLCO found,[11]; [13],60%
same,herbicidal activity against POLCO found,[11]; [14],50%
same,herbicidal activity against POLCO found,"[11]; Example 10, compound (I) 62.5 g/ha a.s. alone",73%
"C#CCN1C(=O)C(F)(F)Oc2cc(F)c(-n3c(=O)n(C)c(=S)n(C)c3=O)cc21 [trifludimoxazin, 1,5-dimethyl-6-thioxo-3-(2,2,7-trifluoro-3-oxo-4-(prop-2-ynyl)-3,4-dihydro-2H-benzo[b][1,4]oxazin-6-yl)-1,3,5-triazinane-2,4-dione]",herbicidal activity against GALAP found,"[1]; Example 9, trifludimoxazin 2 g/ha a.s. alone",93%
same,herbicidal activity against LOLMU found,"[2]; Example 4, trifludimoxazin 9 g/ha a.s. alone",65%
same,herbicidal activity against IPOHE found,[3]; [18],97%
same,herbicidal activity against STEME found,[4]; [19],80%
same,herbicidal activity against STEME found,[4]; [20],80%
same,herbicidal activity against STEME found,[5]; [18],90%
same,herbicidal activity against GERDI found,[6]; [21],75%
same,herbicidal activity against GERDI found,[6]; [22],0%
same,herbicidal activity against GERDI found,"[6]; Example 5, trifludimoxazin 4.5 g/ha a.s. alone",0%
same,herbicidal activity against LAMPU found,[7]; [22],98%
same,herbicidal activity against AVEFA found,[8]; [23],35%
same,herbicidal activity against MATIN found,[9]; [23],90%
same,herbicidal activity against ALOMY found,[10]; [21],60%
same,herbicidal activity against POLCO found,[11]; [19],88%
same,herbicidal activity against POLCO found,[11]; [20],88%
same,herbicidal activity against POLCO found,"[11]; Example 10, trifludimoxazin 0.25 g/ha a.s. alone",88%
